Experimental findings from patent publication US6521567B2, “Herbicidal composition” (priority 2001, dated 2003) are described below.

This assay has as its system common cocklebur. In words: Test Example 4: field spray, herbicidal activity (flumiclorac-pentyl). As to conditions: index 0-100; common cocklebur height about 65 cm; 100 g/hectare alone; 1000 liters per hectare spray; after 4 days. It is filed as in vivo, Xanthium strumarium. As to the method: The herbicidal effect is evaluated with indices of 0 to 100 at intervals of 5, wherein “0” means that there was no or little difference in the degree of germination or growth between the treated plants and the untreated plants at the time of examination, “100” means that the test plants died completely.
Ten (10) parts of flumiclorac-pentyl were dissolved in 80 parts of xylene, after adding 10 parts of Sorpol 3005X (produced by Toho Chemical), the solution was well stirred and mixed to give 10% emulsifiable concentrate of flumiclorac-pentyl. From the aqueous dilution of said 10% emulsifiable concentrate of flumiclorac-pentyl, with a aqueous dilution of 25% emulsifiable concentrate of thiometon (commercial name: Ekatin EC, produced by Sankyo), 45% emulsifiable concentrate of oxydeprofos (commercial name: Estox EC, produced by Nihon Bayer Agrochem) or 50% emulsifiable concentrate of fenthion (commercial name: baycid EC, produced by Nihon Bayer Agrochem), prepared each aqueous dilution of the prescribed concentration of the present formulation.
Their aqueous dilution of the present formulation, with 1000 liters per hectare, were sprayed over a place in the field where common cocklebur (the height: about 65 cm) were growing. After 4 days from the application, the herbicidal activity were examined.

Turning to `CCCCCOC(=O)COc1cc(N2C(=O)C3=C(CCCC3)C2=O)c(F)cc1Cl` [flumiclorac-pentyl, pentyl[2-chloro-5-(cyclohex-1-ene-1,2-dicarboximido)-4-fluorophenoxy]acetate], the Herbicidal activity is recorded as 30.
